Data as given in patent US20240199587A1, “HETEROCYCLIC COMPOUNDS” (Hoffmann-La Roche Inc., priority 2021, published 2024).

The compounds below were run against T1, MAGL (Homo sapiens, UniProt Q99685) (assay: 2-AG assay (MAGL inhibitory activity, hydrolysis of 2-arachidonoylglycerol to arachidonic acid followed by mass spectrometry)). Conditions: 8 μM 2-arachidonoylglycerol, 15 min pre-incubation, 30 min incubation at RT, RapidFire MS readout.
T1 sequence (Q99685 1-303): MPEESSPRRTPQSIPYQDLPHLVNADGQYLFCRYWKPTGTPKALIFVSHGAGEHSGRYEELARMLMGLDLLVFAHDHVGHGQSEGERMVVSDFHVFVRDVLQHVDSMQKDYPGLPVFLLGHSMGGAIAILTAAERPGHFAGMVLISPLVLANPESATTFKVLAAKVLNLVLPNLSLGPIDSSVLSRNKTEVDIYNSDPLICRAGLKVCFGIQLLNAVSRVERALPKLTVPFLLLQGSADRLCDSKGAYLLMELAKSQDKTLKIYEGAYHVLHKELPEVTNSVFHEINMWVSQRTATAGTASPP
Assay type: biochemical
Summary of the method: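 Human MAGL ([…] final) pre-incubated 15 min at RT with compound in 50 mM TRIS, 1 mM EDTA, 0.01% Tween-20, 2.5% DMSO; 8 μM 2-AG then added for 30 min at RT. Acetonitrile quench with d8-arachidonic acid; arachidonic acid measured by RapidFire SPE–MS/MS, activity from arachidonic acid/d8 ratio.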

Structure (SMILES)	IC50
CC(C)(C)c1nc(C2CN(C(=O)N3CC4(CC(n5cnc(C6CC6)n5)C4)C3)C2)cs1 [Example 87, [3-(2-tert-butylthiazol-4-yl)azetidin-1-yl]-[6-(3-cyclopropyl-1,2,4-triazol-1-yl)-2-azaspiro[3.3]heptan-2-yl]methanone]	6.5 nM
O=C(N1CC(C#Cc2ccc(OC(F)F)cc2)C1)N1CC2(CC(n3cnc(C4CC4)n3)C2)C1 [Example 92, [6-(3-cyclopropyl-1,2,4-triazol-1-yl)-2-azaspiro[3.3]heptan-2-yl]-[3-[2-[4-(difluoromethoxy)phenyl]ethynyl]azetidin-1-yl]methanone]	11.7 nM
O=C(N1CC(Oc2ccc(Cl)cc2F)C1)N1CC2(CC(n3cnc(C4CC4)n3)C2)C1 [Example 99, (3-(4-chloro-2-fluorophenoxy)azetidin-1-yl)(6-(3-cyclopropyl-1H-1,2,4-triazol-1-yl)-2-azaspiro[3.3]heptan-2-yl)methanone]	9.5 nM
Cc1ccc(OC2CN(C(=O)N3CC4(CC(n5cnc(C6CC6)n5)C4)C3)C2)c(Cl)n1 [Example 100, (3-((2-chloro-6-methylpyridin-3-yl)oxy)azetidin-1-yl)(6-(3-cyclopropyl-1H-1,2,4-triazol-1-yl)-2-azaspiro[3.3]heptan-2-yl)methanone]	79.9 nM
O=C(N1CC(OCc2ccc(C(F)(F)F)cc2)C1)N1CC2(CC(n3cnc(C4CC4)c3)C2)C1 [Example 101, [6-(4-cyclopropylimidazol-1-yl)-2-azaspiro[3.3]heptan-2-yl]-[3-[[4-(trifluoromethyl)phenyl]methoxy]azetidin-1-yl]methanone]	42.1 nM
O=C(N1CC(OCc2ccc(C(F)(F)F)cc2F)C1)N1CC2(CC(n3cnc(C4CC4)c3)C2)C1 [Example 102, [6-(4-cyclopropylimidazol-1-yl)-2-azaspiro[3.3]heptan-2-yl]-[3-[[2-fluoro-4-(trifluoromethyl)phenyl]methoxy]azetidin-1-yl]methanone]	51.4 nM
O=C(N1CC(OCc2ccc(C(F)(F)F)c(F)c2)C1)N1CC2(CC(n3cnc(C4CC4)c3)C2)C1 [Example 103, [6-(4-cyclopropylimidazol-1-yl)-2-azaspiro[3.3]heptan-2-yl]-[3-[[3-fluoro-4-(trifluoromethyl)phenyl]methoxy]azetidin-1-yl]methanone]	9.9 nM
O=C(N1CC(OCc2ccc(S(F)(F)(F)(F)F)cc2)C1)N1CC2(CC(n3cnc(C4CC4)c3)C2)C1 [Example 104, [6-(4-cyclopropylimidazol-1-yl)-2-azaspiro[3.3]heptan-2-yl]-[3-[[4-(pentafluoro-λ^6-sulfanyl)phenyl]methoxy]azetidin-1-yl]methanone]	9.7 nM
Cc1ccc(COC2CN(C(=O)N3CC4(CC(n5cnc(C6CC6)c5)C4)C3)C2)cc1C(F)(F)F [Example 106, [6-(4-cyclopropylimidazol-1-yl)-2-azaspiro[3.3]heptan-2-yl]-[3-[[4-methyl-3-(trifluoromethyl)phenyl]methoxy]azetidin-1-yl]methanone]	4.1 nM
O=C(N1CC(C#Cc2ccccc2C(F)F)C1)N1CC2(CC(n3cnc(C4CC4)n3)C2)C1 [Example 107, [6-(3-cyclopropyl-1,2,4-triazol-1-yl)-2-azaspiro[3.3]heptan-2-yl]-[3-[2-[2-(difluoromethyl)phenyl]ethynyl]azetidin-1-yl]methanone]	4.7 nM
O=C(N1CC(OCc2ccc(Cl)cc2F)C1)N1CC2(CC(n3cnc(C4CC4)c3)C2)C1 [Example 108, [3-[(4-chloro-2-fluoro-phenyl)methoxy]azetidin-1-yl]-[6-(4-cyclopropylimidazol-1-yl)-2-azaspiro[3.3]heptan-2-yl]methanone]	25 nM
O=C(N1CC(OCc2ccc(F)cc2Cl)C1)N1CC2(CC(n3cnc(C4CC4)c3)C2)C1 [Example 109, [3-[(2-chloro-4-fluoro-phenyl)methoxy]azetidin-1-yl]-[6-(4-cyclopropylimidazol-1-yl)-2-azaspiro[3.3]heptan-2-yl]methanone]	63.5 nM
O=C(N1CC(OCc2ccc(F)cc2F)C1)N1CC2(CC(n3cnc(C4CC4)c3)C2)C1 [Example 110, [6-(4-cyclopropylimidazol-1-yl)-2-azaspiro[3.3]heptan-2-yl]-[3-[(2,4-difluorophenyl)methoxy]azetidin-1-yl]methanone]	65.8 nM
N#Cc1ccc(OC2CC3(C2)CN(C(=O)N2CC4(CC(n5cnc(C6CC6)n5)C4)C2)C3)c(F)c1 [Example 111, 4-[[2-[6-(3-cyclopropyl-1,2,4-triazol-1-yl)-2-azaspiro[3.3]heptane-2-carbonyl]-2-azaspiro[3.3]heptan-6-yl]oxy]-3-fluoro-benzonitrile]	4.3 nM
O=C(N1C[C@H]2C[C@H](Oc3ccc(OC(F)F)cc3F)C[C@H]2C1)N1CC2(CC(n3cnc(C4CC4)n3)C2)C1 [Example 112, [6-(3-cyclopropyl-1,2,4-triazol-1-yl)-2-azaspiro[3.3]heptan-2-yl]−[rac-(3aS,6aR)-5-[4-(difluoromethoxy)-2-fluoro-phenoxy]-3,3a,4,5,6,6a-hexahydro-1H-cyclopenta[c]pyrrol-2-yl]methanone]	6 nM
O=C(N1C[C@H]2C[C@H](Oc3ccc(C(F)(F)F)cc3)C[C@H]2C1)N1CC2(CC(n3cnc(C4CC4)n3)C2)C1 [Example 113, [6-(3-cyclopropyl-1,2,4-triazol-1-yl)-2-azaspiro[3.3]heptan-2-yl]-[rac-(3aS,6aR)-5-[4-(trifluoromethyl)phenoxy]-3,3a,4,5,6,6a-hexahydro-1H-cyclopenta[c]pyrrol-2-yl]methanone]	4.8 nM

Now from value to compound:

IC50	Structure (SMILES)
0.6 nM	O=C(N1CC(c2ccc(OC(F)(F)F)cc2Cl)C1)N1CC2(CC(n3cnc(C4CC4)n3)C2)C1 [Example 84, [3-[2-chloro-4-(trifluoromethoxy)phenyl]azetidin-1-yl]−[6-(3-cyclopropyl-1,2,4-triazol-1-yl)-2-azaspiro[3.3]heptan-2-yl]methanone]
0.4 nM	O=C(N1CC(c2cc(F)c(OC(F)(F)F)c(F)c2)C1)N1CC2(CC(n3cnc(C4CC4)n3)C2)C1 [Example 85, [6-(3-cyclopropyl-1,2,4-triazol-1-yl)-2-azaspiro[3.3]heptan-2-yl]-[3-[3,5-difluoro-4-(trifluoromethoxy)phenyl]azetidin-1-yl]methanone]
0.4 nM	O=C(N1CC(c2ccc(OC(F)(F)F)cc2F)C1)N1CC2(CC(n3cnc(C4CC4)n3)C2)C1 [Example 86, [6-(3-cyclopropyl-1,2,4-triazol-1-yl)-2-azaspiro[3.3]heptan-2-yl]-[3-[2-fluoro-4-(trifluoromethoxy)phenyl]azetidin-1-yl]methanone]
1.1 nM	CC(C)(C)Cc1nc(-c2ccc(C(=O)N3CC4(CC(n5cnc(C6CC6)n5)C4)C3)cc2)no1 [Example 88, [6-(3-cyclopropyl-1,2,4-triazol-1-yl)-2-azaspiro[3.3]heptan-2-yl]−[4-[5-(2,2-dimethylpropyl)-1,2,4-oxadiazol-3-yl]phenyl]methanone]
4 nM	CC(C)(C)c1nc(-c2ccc(C(=O)N3CC4(CC(n5cnc(C6CCC6)n5)C4)C3)cc2)no1 [Example 90, [4-(5-tert-butyl-1,2,4-oxadiazol-3-yl)phenyl]−[6-(3-cyclobutyl-1,2,4-triazol-1-yl)-2-azaspiro[3.3]heptan-2-yl]methanone]
0.2 nM	O=C(N1CC(Oc2cccc(C3CC3)c2Cl)C1)N1CC2(CC(n3cnc(C4CC4)n3)C2)C1 [Example 94, (3-(2-chloro-3-cyclopropylphenoxy)azetidin-1-yl)(6-(3-cyclopropyl-1H-1,2,4-triazol-1-yl)-2-azaspiro[3.3]heptan-2-yl)methanone]
1.2 nM	O=C(N1CC(Oc2ccc(Cl)c(C3CC3)c2)C1)N1CC2(CC(n3cnc(C4CC4)n3)C2)C1 [Example 95, (3-(4-chloro-3-cyclopropylphenoxy)azetidin-1-yl)(6-(3-cyclopropyl-1H-1,2,4-triazol-1-yl)-2-azaspiro[3.3]heptan-2-yl)methanone]
2.7 nM	O=C(N1CC(Oc2ccc(C(F)(F)F)cc2F)C1)N1CC2(CC(n3cnc(C4CC4)n3)C2)C1 [Example 96, (6-(3-cyclopropyl-1H-1,2,4-triazol-1-yl)-2-azaspiro[3.3]heptan-2-yl)(3-(2-fluoro-4-(trifluoromethyl)phenoxy)azetidin-1-yl)methanone]
3.4 nM	Cc1ccc(OC2CN(C(=O)N3CC4(CC(n5cnc(C6CC6)n5)C4)C3)C2)c(Cl)c1 [Example 97, (3-(2-chloro-4-methylphenoxy)azetidin-1-yl)(6-(3-cyclopropyl-1H-1,2,4-triazol-1-yl)-2-azaspiro[3.3]heptan-2-yl)methanone]
2.8 nM	O=C(N1CC(Oc2ccc(Cl)cc2Cl)C1)N1CC2(CC(n3cnc(C4CC4)n3)C2)C1 [Example 98, (6-(3-cyclopropyl-1H-1,2,4-triazol-1-yl)-2-azaspiro[3.3]heptan-2-yl)(3-(2,4-dichlorophenoxy)azetidin-1-yl)methanone]
3.9 nM	O=C(N1CC(OCc2ccc(S(F)(F)(F)(F)F)cc2F)C1)N1CC2(CC(n3cnc(C4CC4)c3)C2)C1 [Example 105, [6-(4-cyclopropylimidazol-1-yl)-2-azaspiro[3.3]heptan-2-yl]-[3-[[2-fluoro-4-(pentafluoro-λ^6-sulfanyl)phenyl]methoxy]azetidin-1-yl]methanone]
